Reference: US20040063906A1, “Pna analogues” (priority 2000, published 2004)
{LysNH2} = C-terminal lysine amide

Columns and labels:
[1] = system: 5′-d(T)10; test: Melting temperature (Tm) with 5′-d(T)10; type: binding; conditions: for Melting temperature (Tm), 5′-d(T)10 / Melting temperature (Tm), 5′-d(T)10, cooling curve: Table 2; for Melting temperature (Tm), 5′-d(T)10 / Melting temperature (Tm), X = T: heating curve; for Melting temperature (Tm), 5′-d(T)10 / Melting temperature (Tm), 5′-d(T)10, cooling curve / Melting temperature (Tm), X = T: medium salt buffer, pH 7.0; for Melting temperature (Tm), 5′-d(T)10: 1 K/min; for Melting temperature (Tm), 5′-d(T)10, cooling curve / Melting temperature (Tm), X = T, cooling curve: value in parentheses = cooling curve; for Melting temperature (Tm), X = T / Melting temperature (Tm), X = T, cooling curve: Table 3, DNA target 5′-d(TTT-TXT-TTT-T)-3′
[2] = system: 5′-r(U)10; test: Melting temperature (Tm) with 5′-r(U)10; type: binding; conditions: for Melting temperature (Tm), 5′-r(U)10 / Melting temperature (Tm), 5′-r(U)10, cooling curve: Table 2, medium salt buffer, pH 7.0; for Melting temperature (Tm), 5′-r(U)10: heating curve, 1 K/min; for Melting temperature (Tm), 5′-r(U)10, cooling curve: value in parentheses = cooling curve
[3] = system: DNA target 5′-d(TTT-TXT-TTT-T)-3′, X = A; test: Melting temperature (Tm) with mismatch DNA target, X = A; type: binding; conditions: Table 3
Excerpt: (§1) The complex between PNA 2110 and DNA was further evaluated.

[4] = system: DNA target 5′-d(TTT-TXT-TTT-T)-3′, X = C; test: Melting temperature (Tm) with mismatch DNA target, X = C; type: binding; conditions: Table 3; for Melting temperature (Tm), X = C: heating curve, medium salt buffer, pH 7.0; for Melting temperature (Tm), X = C, cooling curve: value in parentheses = cooling curve
Excerpt: as §1

[5] = system: DNA target 5′-d(TTT-TXT-TTT-T)-3′, X = G; test: Melting temperature (Tm) with mismatch DNA target, X = G; type: binding; conditions: Table 3; for Melting temperature (Tm), X = G: heating curve, medium salt buffer, pH 7.0; for Melting temperature (Tm), X = G, cooling curve: value in parentheses = cooling curve
Excerpt: as §1

[6] = system: complementary DNA oligomers; test: Melting temperature (Tm) with complementary DNA oligomer, Table 1; type: binding; conditions: medium salt buffer: 100 mM NaCl, 10 mM phosphate, 0.1 mM EDTA, pH 7.0; heating rate 1 K/min; UV 254 nm
Protocol: (§2) Binding affinity. The binding affinity towards complementary RNA and DNA oligomers was measured by obtaining the Tm-curves (Table 1). As expected, incorporation of both the pyrrolidinone and the pyrrolidine analogue into the PNA strand results in destabilization against DNA and RNA compared to unmodified PNA (entry 1 vs. 2 and 3).

[7] = system: complementary RNA oligomers; test: Melting temperature (Tm) with complementary RNA oligomer, Table 1; type: binding; conditions: medium salt buffer: 100 mM NaCl, 10 mM phosphate, 0.1 mM EDTA, pH 7.0; heating rate 1 K/min; UV 254 nm
Protocol: as §2

[8] = system: poly dA; test: Thermal denaturation (Tm) with poly dA; type: binding; conditions: for Melting temperature (Tm), Poly dA: measured from 10 to 90 °C, medium salt buffer, pH 7.0, 0.5 K/min; for Melting temperature (Tm), Poly dA, measured from 90 to 10 °C: value in parentheses
Excerpt: (§3) Binding. The binding of PNA 1164 and PNA 2121 to poly dA and poly A was studied by thermal denaturation (Tm, Table 4). Also listed are the values given by Hickman et. al. (29) The thermal stability results presented in Table 4 clearly indicate that a T5-PNA-oligomer having (2R, 4S)-pyrrolidine backbone (PNA 2121) forms stronger complexes with both poly dA and poly A as compared to the (2R, 4R)-pyrrolidine isomer (entry 3) and also compared to the parent aminoethylglycine PNA (PNA 1164, entry 1). These complexes are ascribed to triplexes and further studies on (pyrimidine-purine mixed sequences) pyrrolidine PNAs are required to establish whether the present results can be extended to duplex structures and are generally valid. Such studies are now in progress.

[9] = system: poly A; test: Thermal denaturation (Tm) with poly A; type: binding; conditions: for Melting temperature (Tm), Poly A: measured from 10 to 90 °C, medium salt buffer, pH 7.0, 0.5 K/min; for Melting temperature (Tm), Poly A, measured from 90 to 10 °C: value in parentheses
Excerpt: as §3

[10] = system: 5′-r(U)10; conditions: earlier work (17); cited from earlier work
[11] = system: DNA antiparallel: 5′-dAGA GTA TGA GTA-3′; test: Thermal stability (Tm) of complex with antiparallel DNA; type: binding; conditions: pH 7.0; for Tm, DNA antiparallel, down: medium salt buffer
Protocol: (§4) The binding properties of pyr-PNA oligomer consisting of 10 monomers of the following sequence: H-CTC ATA CTC T-Lys-NH2 were investigated by measuring the thermal stability of the complexes formed with sequence complementary DNA and RNA, respectively, as compared to the stability for the corresponding aeg-PNA oligomer.
(§5) The stability expressed as the melting temperature (Tm), defined as the temperature at which 50% of the complexes have been dissociated, was determined as described by Arghya Ray et al (32).
(§6) Measured in medium salt buffer: 100 mM NaCl, 10 mM Na-phosphate, 0.1 mM EDTA, pH=7.0.

[12] = system: DNA parallel: 5′-dATG AGT ATG AGA-3′; test: Thermal stability (Tm) of complex with parallel DNA; type: binding; conditions: medium salt buffer, pH 7.0
Protocol: as §4, §5, §6

[13] = system: RNA antiparallel: 5′-AGA GUA UGA GUA-3′; test: Thermal stability (Tm) of complex with antiparallel RNA; type: binding; conditions: medium salt buffer, pH 7.0
Protocol: as §4, §5, §6

[14] = as opposed to the parent PNA 186
[15] = compared with PNA 186 (Table 2, entry 1 and 3)
[16] = melting curves at pH 9 (not shown)

H-(A#)10-LysNH2 [PNA 2110]
Melting temperature (Tm), 5′-d(T)10 [1]: 79.0 °C
Melting temperature (Tm), 5′-d(T)10, cooling curve [1]: 41.0 °C
Melting temperature (Tm), X = T [1]: 79.0 °C
Melting temperature (Tm), X = T, cooling curve [1]: (41.0) °C
Hysteresis of melting curves against DNA [1, 14]: significant hysteresis was detected
ΔTm/mod towards DNA [1, 15]: +2.5 °C
Recognition of 5′-d(T)10 (sequence specificity) ([1]; from mismatch Tm values of Table 3): sequence specific
Lowering of Tm at pH 9 instead of pH 7, against DNA [1, 16]: about 3.5 °C
Melting temperature (Tm), 5′-r(U)10 [2]: 60.0 °C
Melting temperature (Tm), 5′-r(U)10, cooling curve [2]: 45.5 °C
Hysteresis of melting curves against RNA [2, 14]: significant hysteresis was detected
ΔTm/mod towards RNA [2, 15]: +2.5 °C
Lowering of Tm at pH 9 instead of pH 7, against RNA [2, 16]: ~1.5 °C
Melting temperature (Tm), X = A ([3]; heating curve, medium salt buffer, pH 7.0): 67.5 °C
Melting temperature (Tm), X = A, cooling curve ([3]; value in parentheses = cooling curve): 35.5 °C
Melting temperature (Tm), X = C [4]: 71.0 °C
Melting temperature (Tm), X = C, cooling curve [4]: 36.0 °C
Melting temperature (Tm), X = G [5]: 68.5 °C
Melting temperature (Tm), X = G, cooling curve [5]: 37.0 °C

H-TAC-TCA-TAC-TCT-LysNH2 (TACTCATACTCT; all peptide nucleic acid (PNA), 3' {LysNH2}) [PNA 2005, unmodified PNA dodecamer]
Melting temperature (Tm), DNA [6]: 49.5 °C
Melting temperature (Tm), RNA [7]: 59.5 °C

H-(T)5-LysNH2 [PNA 1164, reference compound]
Melting temperature (Tm), Poly dA [8]: 53.0 °C
Melting temperature (Tm), Poly dA, measured from 90 to 10 °C [8]: 45.5 °C
Melting temperature (Tm), Poly A [9]: 64.0 °C
Melting temperature (Tm), Poly A, measured from 90 to 10 °C [9]: 58.5 °C

H-(A*)10-LysNH2 [PNA 2020, reference compound]
Melting temperature (Tm), 5′-r(U)10 [2]: 25.5 °C
Tm depression per modification as compared to unmodified PNA against r(U)10 [10]: 1 °C

H-(T#)5-LysNH2 [PNA 2121]
Melting temperature (Tm), Poly dA [8]: 78.5 °C
Melting temperature (Tm), Poly dA, measured from 90 to 10 °C [8]: 44.0 °C
Melting temperature (Tm), Poly A [9]: 79.0 °C
Melting temperature (Tm), Poly A, measured from 90 to 10 °C [9]: 51.5 °C

H-TAC-TCA*-TAC-TCT-LysNH2 (TACTCATACTCT; chemistry not fully specified) [PNA 2075, PNA dodecamer with one A* = (3S, 5R) pyrrolidone PNA monomer]
Melting temperature (Tm), DNA [6]: 41.0 °C
Melting temperature (Tm), RNA [7]: 53.8 °C

H-Gly-(A)10-NH2 [PNA 186, reference compound]
Melting temperature (Tm), 5′-d(T)10 [1]: 55.5 (55.5) °C
Melting temperature (Tm), 5′-d(T)10, cooling curve [1]: 55.5 (55.5) °C
Melting temperature (Tm), X = T [1]: 55.5 °C
Melting temperature (Tm), X = T, cooling curve [1]: (55.5) °C
Melting temperature (Tm), 5′-r(U)10 [2]: 35.5 (35.5) °C
Melting temperature (Tm), 5′-r(U)10, cooling curve [2]: 35.5 (35.5) °C
Melting temperature (Tm), X = C [4]: 36.5 (36.5) °C
Melting temperature (Tm), X = C, cooling curve [4]: 36.5 (36.5) °C
Melting temperature (Tm), X = G [5]: 40.5 (40.5) °C
Melting temperature (Tm), X = G, cooling curve [5]: 40.5 (40.5) °C

H-CTC ATA CTC T-Lys-NH2 [PNA 2232] (CTCATACTCT; all peptide nucleic acid (PNA), 3' {LysNH2}; further chemistry not fully specified) [pyr PNA oligomer of 10 monomers]
Tm, DNA antiparallel, down [11]: (58.0°) °C
Tm, DNA parallel, down [12]: (61.5°) °C
Tm, RNA antiparallel, down [13]: (41.0°) °C

H-TAC-TCA#-TAC-TCT-LysNH2 [PNA 2104]
Melting temperature (Tm), DNA [6]: 28.5 °C
Melting temperature (Tm), RNA [7]: 44.5 °C

H-CTC ATA CTC T-Lys-NH2 [PNA 2244] (CTCATACTCT; all peptide nucleic acid (PNA), 3' {LysNH2}) [aeg PNA oligomer of 10 monomers, reference compound]
Tm, DNA antiparallel, down [11]: (43.0°) °C
Tm, DNA antiparallel, up ([11]; medium salt buffer: 100 mM NaCl, 10 mM Na-phosphate, 0.1 mM EDTA): 45.0° °C
Tm, DNA parallel, down [12]: (43.5°) °C
Tm, DNA parallel, up [12]: 44.0° °C
